Measured values reported in ChEMBL document CHEMBL5107956, “Natural products from mangrove sediments-derived microbes: Structural diversity, bioactivities, biosynthesis, and total synthesis” (Eur J Med Chem, 2022).
Converted amounts (≈) assume the structure as drawn.

Legend:
[1] = molecular target: Prostaglandin G/H synthase 2 (Homo sapiens) (UniProt P35354); experiment: Inhibition of COX2 (unknown origin) at 20 nM relative to control
Influenza A virus = experiment: Antiviral activity against Influenza A virus H1N1; format: functional, organism-based
HeLa = experiment: Cytotoxicity against human HeLa cells assessed as cell growth inhibition; format: functional, cell-based
MCF7 = experiment: Cytotoxicity against human MCF7 cells assessed as cell growth inhibition; format: functional, cell-based
Candida albicans = experiment: Antifungal activity against Candida albicans ATCC 10231 assessed as fungal growth inhibition by agar dilution method; format: functional
Staphylococcus aureus [2] = experiment: Antibacterial activity against Staphylococcus aureus S014 assessed as bacterial cell growth inhibition by agar dilution method; format: functional
Escherichia coli = experiment: Antibacterial activity against Escherichia coli S002 assessed as bacterial cell growth inhibition by agar dilution method; format: functional
Bacillus subtilis = experiment: Antibacterial activity against Bacillus subtilis S028 assessed as bacterial cell growth inhibition by agar dilution method; format: functional
Staphylococcus aureus [3] = experiment: Antibacterial activity against methicillin-resistant Staphylococcus aureus assessed as bacterial cell growth inhibition by agar dilution method; format: functional
HCT-116 = experiment: Cytotoxicity against human HCT-116 cells assessed as cell growth inhibition by MTT assay; format: functional, cell-based
HL-60 = experiment: Antiproliferative activity against human HL-60 cells assessed as cell growth inhibition measured after 72 hrs by CCK-8 assay; format: functional, cell-based; conditions: HL-60, 72 h

Sequence of Prostaglandin G/H synthase 2 (Homo sapiens) (P35354 whole entry, looked up): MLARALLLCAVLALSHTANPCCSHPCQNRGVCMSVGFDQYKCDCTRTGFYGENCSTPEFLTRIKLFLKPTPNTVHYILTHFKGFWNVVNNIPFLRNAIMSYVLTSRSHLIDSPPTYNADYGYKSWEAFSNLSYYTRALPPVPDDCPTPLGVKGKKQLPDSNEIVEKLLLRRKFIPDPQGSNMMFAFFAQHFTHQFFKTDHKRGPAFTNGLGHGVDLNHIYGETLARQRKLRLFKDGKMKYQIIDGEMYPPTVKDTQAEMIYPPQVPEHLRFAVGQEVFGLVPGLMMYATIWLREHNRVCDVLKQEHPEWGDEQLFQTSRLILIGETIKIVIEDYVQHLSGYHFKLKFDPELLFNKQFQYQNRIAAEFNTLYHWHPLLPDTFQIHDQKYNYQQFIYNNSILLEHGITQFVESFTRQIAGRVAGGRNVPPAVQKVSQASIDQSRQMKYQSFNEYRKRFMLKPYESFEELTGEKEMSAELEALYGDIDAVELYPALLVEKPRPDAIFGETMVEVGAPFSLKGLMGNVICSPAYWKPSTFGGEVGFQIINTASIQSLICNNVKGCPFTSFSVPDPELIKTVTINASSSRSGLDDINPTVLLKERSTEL

`CC(C)=CCc1cc(C[C@@]2(CC=C(C)C)OC(=O)C(O)C2c2ccccc2)ccc1O` (stereo not given in full) gave an inhibition [1] of 66.3%.
With `CC(=O)C[C@H](c1nc2ccccc2c(=O)n1[C@@H]1C[C@]2(OC1=O)c1ccccc1N1C(=O)[C@H](C)N[C@H]12)C(C)C` the IC50 (Influenza A virus) was 82 µM.
Work on `CC[C@@H]1[C@@H](C)O[C@@](OC)([C@@H](C)[C@H](O)[C@H](C)[C@H]2OC(=O)/C=C/C=C/[C@H](C)[C@@H]([C@@H](C)[C@@H](O)[C@H](C)[C@@]3(OC)C[C@@H](O[C@H]4C[C@H](O)[C@H](O)[C@H](C)O4)[C@H](CC)[C@@H](C)O3)OC(=O)/C(C)=C/C=C/[C@@H]2C)C[C@H]1O[C@H]1C[C@H](O)[C@H](O)[C@H](C)O1` yielded an IC50 (HeLa) of 190 nM and an IC50 (MCF7) of 190 nM.
For `CC(C)=C1NC(=O)[C@@H](C[C@]2(O)c3ccccc3N3C(=O)[C@H](C)N[C@H]32)n2c1nc1ccccc1c2=O`, the IC50 (Influenza A virus) was 82 µM.
`CC[C@@H]1[C@@H](C)O[C@@](OC)([C@@H](C)[C@H](O)[C@H](C)[C@H]2OC(=O)/C=C/C=C/[C@H](C)[C@@H]([C@@H](C)[C@@H](O)[C@H](C)[C@@]3(OC)C[C@@H](O[C@H]4C[C@H](O)[C@H](O)[C@H](C)O4)[C@H](CC)[C@@H](C)O3)OC(=O)/C=C/C=C/[C@@H]2C)C[C@H]1O[C@H]1C[C@H](O)[C@H](O)[C@H](C)O1` showed an IC50 (HeLa) of 190 nM and an IC50 (MCF7) of 190 nM.
`CCCC(CC)COC(=O)CC(=O)OC1CC(O)CC(O)CC(O)/C(C)=C/C=C/C(C)C(C(C)CCC/C=C/CCCN/C(=N/C)NC)OC(=O)/C(C)=C/C=C/C(C)C(O)CC(O)C(C)C(O)CCC(C)C(O)CC2(O)OC(C1)CC(O)C2O` (stereo not given) was tested, and the MIC (Candida albicans) was 1.65 µg/mL (≈ 1.38 µM).
`C/N=C(/N)NCCC/C=C/CCC[C@H](C)[C@@H]1OC(=O)/C(C)=C/C=C/[C@H](C)[C@@H](O)C[C@H](O)[C@@H](C)[C@H](O)CC[C@H](C)[C@@H](O)C[C@@]2(O)O[C@@H](C[C@@H](OC(=O)CCCCC(C)C)C[C@H](O)C[C@@H](O)C[C@H](O)/C(C)=C/C=C/[C@H]1C)C[C@@H](O)[C@@H]2O` gave an MIC (Candida albicans) of 1.65 µg/mL (≈ 1.47 µM), an MIC (Staphylococcus aureus [2]) of 0.39 µg/mL (≈ 0.347 µM) and an MIC (Escherichia coli) of 3.13 µg/mL (≈ 2.79 µM). It also gave an MIC (Bacillus subtilis) of 0.2 µg/mL (≈ 0.178 µM).
In the case of `CCCC(CC)COC(=O)CC(=O)OC1CC(O)CC2CC(O)C(O)C(O)(CC(O)C(C)CCC(O)C(C)C(O)CC(O)C(C)/C=C/C=C(\C)C(=O)OC(C(C)CCC/C=C/CCCN/C(N)=N\C)C(C)/C=C/C=C(\C)C(O)CC(O)C1)O2` (stereo not given), the MIC (Candida albicans) is reported as 1.65 µg/mL (≈ 1.4 µM), the MIC (Staphylococcus aureus [2]) is reported as 0.39 µg/mL (≈ 0.33 µM) and the MIC (Escherichia coli) is reported as 3.13 µg/mL (≈ 2.65 µM). For the same molecule, the MIC (Bacillus subtilis) was 0.2 µg/mL (≈ 0.169 µM).
For `CC(=O)C[C@H](c1nc2ccccc2c(=O)n1[C@@H]1C[C@]2(OC1=O)c1ccccc1N1C(=O)C(C)(C)N(O)[C@H]12)C(C)C`, the IC50 (Influenza A virus) was 82 µM.
Work on `C/N=C(\NC)NCCC/C=C/CCCC(C)C1OC(=O)/C(C)=C/C=C/C(C)C(O)CC(O)C(C)C(O)CCC(C)C(O)CC2(O)OC(CC(OC(=O)CC(=O)O)CC(O)CC(O)CC(O)/C(C)=C/C=C/C1C)CC(O)C2O` (stereo not given) yielded an MBC (Staphylococcus aureus [3]) of 8 µg/mL (≈ 7.3 µM), an MIC (Staphylococcus aureus [3]) of 4 µg/mL (≈ 3.65 µM) and an IC50 (HCT-116) of 1.81 µg/mL (≈ 1.65 µM). It also gave an MIC (Candida albicans) of 1.65 µg/mL (≈ 1.5 µM).
Molecule `CCOC(=O)[C@]1(Cc2ccccc2)OC(=O)C(O)C1c1ccc(O)cc1` (stereo not given in full) has an inhibition [1] of 98.3%.
In the case of `O=C1NC2c3nc4ccccc4c(=O)n3[C@H]1C[C@@]21c2ccccc2N2C(=O)[C@@H]3CCCN3[C@H]21`, the IC50 (Influenza A virus) is reported as 82 µM.
With `C/N=C(/N)NCCC/C=C/CCC[C@H](C)[C@@H]1OC(=O)/C(C)=C/C=C/[C@H](C)[C@@H](O)C[C@H](O)[C@@H](C)[C@H](O)CC[C@H](C)[C@@H](O)C[C@@]2(O)O[C@@H](C[C@@H](OC(=O)CCCCCCCC(C)C)C[C@H](O)C[C@@H](O)C[C@H](O)/C(C)=C/C=C/[C@H]1C)C[C@@H](O)[C@@H]2O` the MIC (Candida albicans) was 1.65 µg/mL (≈ 1.42 µM), the MIC (Staphylococcus aureus [2]) was 0.39 µg/mL (≈ 0.335 µM) and the MIC (Escherichia coli) was 3.13 µg/mL (≈ 2.69 µM). For the same molecule, the MIC (Bacillus subtilis) was 0.2 µg/mL (≈ 0.172 µM).
Work on `CCCC(CC)COC(=O)CC(=O)OC1CC(O)CC(O)CC(O)/C(C)=C/C=C/C(C)C(C(C)CCC/C=C/CCCN/C(N)=N/C)OC(=O)/C(C)=C/C=C/C(C)C(O)CC(O)C(C)C(O)CCC(C)C(O)CC2(O)OC(C1)CC(O)C2O` (stereo not given) yielded an MIC (Candida albicans) of 1.65 µg/mL (≈ 1.4 µM).
Work on `COc1nc(C/C=C(\C)C/C=C/C(C)=C/[C@@H](C)/C=C(\C)[C@H](C)O)c(C)c(O)c1OC` yielded an IC50 (HL-60) of under 100 nM.
Work on `CC[C@@H]1[C@@H](C)O[C@@](O)([C@@H](C)[C@H](O)[C@H](C)[C@H]2OC(=O)/C=C/C=C/[C@H](C)[C@@H]([C@@H](C)[C@@H](O)[C@H](C)[C@@]3(O)C[C@@H](O[C@H]4C[C@H](O)[C@H](O)[C@H](C)O4)[C@H](CC)[C@@H](C)O3)OC(=O)/C(C)=C/C=C/[C@@H]2C)C[C@H]1O[C@H]1C[C@H](O)[C@H](O)[C@H](C)O1` yielded an IC50 (HeLa) of 190 nM and an IC50 (MCF7) of 190 nM.
Molecule `C/C1=C\C=C\[C@H](C)[C@@H](O)C[C@H](O)[C@@H](C)[C@H](O)CC[C@H](C)[C@@H](O)C[C@@]2(O)O[C@@H](C[C@@H](OC(=O)CCCCC(C)C)C[C@H](O)C[C@@H](O)C[C@H](O)/C(C)=C/C=C/[C@@H](C)[C@H]([C@@H](C)CCC/C=C/CCCNC(=N)N)OC1=O)C[C@@H](O)[C@@H]2O` has an MIC (Candida albicans) of 1.65 µg/mL (≈ 1.49 µM), an MIC (Staphylococcus aureus [2]) of 0.39 µg/mL (≈ 0.352 µM) and an MIC (Escherichia coli) of 3.13 µg/mL (≈ 2.82 µM). It also gave an MIC (Bacillus subtilis) of 0.2 µg/mL (≈ 0.18 µM).
